# Results from patent US9593097B2, “Axl inhibitors” (Pfizer Inc., priority 2014, dated 2017).
# Target: Axl phosphorylation in 293MSR-AxlWT6 cells (Homo sapiens (Human), UniProt P30530)
# Test: Cellular Axl phosphorylation ELISA assay (Gas6-stimulated 293MSR-AxlWT6 cells)
# Type: cell-based
# Conditions: Table 4A, read-out: CELL AXL IC50
# Experimental: Cellular Axl Phosphorylation ELISA Assay
# After 6-7 hrs in tissue culture incubator at 37° C. 5% CO2, medium was removed, serum-free medium was added (with 0.04% bovine serum albumin) and plates were returned to incubator where they remained overnight. […] Media was then removed and lysis buffer was added to wells and shaken at 4° C. for 30 min to generate protein lysates. Subsequently, phosphorylation of Axl was assessed by a sandwich ELISA method using a DuoSet IC Human Phospho-Axl ELISA assay kit (R&D System), an immobilized mouse anti-human Axl antibody and an anti-phospho-tyrosine-HRP antibody as a detection antibody. Antibody-coated plates were (a) incubated in presence of protein lysates at room temperature for 2 hrs, (b) washed seven times in 0.1% Tween 20 in PBS, (c) incubated with secondary antibody (a horseradish peroxidase-conjugated […]) for 2 hrs, (d) washed seven times again, (e) TMB peroxidase substrate (Bio-Rad) was added to initiate a colorimetric reaction and stopped by adding 0.2 N H2SO4, and (f) measured at OD 450 nm using a spectrophotometer. IC50 values were calculated by concentration-response curve fitting using a four-parameter analytic method and reported in μM.
# For Table 4B, IC50 values were calculated by concentration-response curve fitting using a four-parameter analytic method and reported in nM.
# Axl phosphorylation in 293MSR-AxlWT6 cells, sequence (P30530 26-894): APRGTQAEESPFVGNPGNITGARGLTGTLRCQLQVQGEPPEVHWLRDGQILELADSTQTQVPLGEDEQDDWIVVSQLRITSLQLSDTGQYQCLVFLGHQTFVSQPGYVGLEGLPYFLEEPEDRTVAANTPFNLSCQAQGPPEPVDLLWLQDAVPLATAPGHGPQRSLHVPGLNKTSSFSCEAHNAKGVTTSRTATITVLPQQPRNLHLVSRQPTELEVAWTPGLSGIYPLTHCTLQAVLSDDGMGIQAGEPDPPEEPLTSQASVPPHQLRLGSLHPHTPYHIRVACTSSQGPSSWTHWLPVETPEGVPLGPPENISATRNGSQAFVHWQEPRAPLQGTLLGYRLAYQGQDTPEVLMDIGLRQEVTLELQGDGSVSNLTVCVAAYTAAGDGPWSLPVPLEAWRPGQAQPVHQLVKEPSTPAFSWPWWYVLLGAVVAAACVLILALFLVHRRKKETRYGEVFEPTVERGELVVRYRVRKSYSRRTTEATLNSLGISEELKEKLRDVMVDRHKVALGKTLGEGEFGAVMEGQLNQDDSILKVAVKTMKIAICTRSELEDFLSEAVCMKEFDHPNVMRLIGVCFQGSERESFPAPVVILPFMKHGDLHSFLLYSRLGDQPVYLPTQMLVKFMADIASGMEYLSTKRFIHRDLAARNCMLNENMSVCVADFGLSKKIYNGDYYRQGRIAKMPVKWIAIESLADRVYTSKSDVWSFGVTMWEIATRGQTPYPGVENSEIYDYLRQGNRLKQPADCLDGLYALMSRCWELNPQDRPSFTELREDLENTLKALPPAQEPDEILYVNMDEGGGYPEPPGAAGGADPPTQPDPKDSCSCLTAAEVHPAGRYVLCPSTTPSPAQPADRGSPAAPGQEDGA
row,Compound,IC50
1,"N#C[C@@H]1C[C@@H]1COc1nc(C(=O)NC23CC(C2)C3)cc(N2CC[C@H](c3n[nH]c4ncccc34)[C@H](F)C2)n1 (single isomer, unassigned) [Example 79]",56.4 nM
2,"COC[C@@H](C)Oc1nc(C(=O)N[C@H](C)CN(C)C)cc(N2CCC(c3ccc(N)c(C(N)=O)n3)CC2)n1 (single isomer, unassigned) [Example 36]",87.4 nM
3,"N#CC1(COc2nc(C(=O)NCC(F)(F)F)cc(N3CCC(COc4cncnc4N)CC3)n2)CC1 [Example 31, 6-(4-{[(4-aminopyrimidin-5-yl)oxy]methyl}piperidin-1-yl)-2-[(1-cyanocyclopropyl)methoxy]-N-(2,2,2-trifluoroethyl) pyrimidine-4-carboxamide]",12.6 nM
4,"COc1ccnc2[nH]nc(C3CCN(c4cc(C(=O)N[C@@H](C)C(F)(F)F)nc(OC[C@H]5CCO5)n4)CC3)c12 [Example 381, 6-[4-(4-methoxy-1H-pyrazolo[3,4-b]pyridin-3-yl)piperidin-1-yl]-2-[(2R)-oxetan-2-ylmethoxy]-N-[(2S)-1,1,1-trifluoropropan-2-yl]pyrimidine-4-carboxamide]",0.77 nM
5,"COC[C@@H](C)Oc1nc(C(=O)NCC(C)(C)O)cc(N2CCC(c3ccc(N)c(C(N)=O)n3)CC2)n1 [Example 8, 6-[4-(5-amino-6-carbamoylpyridin-2-yl)piperidin-1-yl]-N-(2-hydroxy-2-methylpropyl)-2-{[(2R)-1-methoxypropan-2-yl]oxy}pyrimidine-4-carboxamide]",77.9 nM
6,"N#C[C@@H]1C[C@@H]1COc1nc(C(=O)NCC2CC2)nc(N2CCC(c3ccc(N)c(C(N)=O)n3)CC2)n1 [Example 87, 4-[4-(5-amino-6-carbamoylpyridin-2-yl)piperidin-1-yl]-6-{[(1S,2R)-2-cyanocyclopropyl]methoxy}-N-(cyclopropyl-methyl)-1,3,5-triazine-2-carboxamide]",66 nM
7,"C[C@H](CO)NC(=O)c1cc(N2CCC(c3c[nH]c4ncccc34)CC2)nc(OC[C@H]2CCO2)n1 [Example 50, N-[(2R)-1-hydroxypropan-2-yl]-2-[(2R)-oxetan-2-ylmethoxy]-6-[4-(1H-pyrrolo[2,3-b]pyridin-3-yl)piperidin-1-yl]pyrimidine-4-carboxamide]",15.5 nM
8,"CCNC(=O)c1cc(N2CCC(COc3cc(-c4cnn(C)c4)cnc3N)CC2)nc(OCC(C)O)n1 (stereo not drawn) [Example 45, 6-[4-({[2-amino-5-(1-methyl-1H-pyrazol-4-yl)pyridin-3-yl]oxy}methyl)piperidin-1-yl]-N-ethyl-2-(2-hydroxypropoxy) pyrimidine-4-carboxamide]",235 nM
9,"CCNC(=O)c1cc(N2CCC(COc3cc(-c4cnn(CCO)c4)cnc3N)CC2)nc(O[C@H](C)COC)n1 [Example 86, 6-{4-[({2-amino-5-[1-(2-hydroxyethyl)-1H-pyrazol-4-yl]pyridin-3-yl}oxy)methyl]piperidin-1-yl}-N-ethyl-2-{[(2R)-1-methoxypropan-2-yl]oxy} pyrimidine-4-carboxamide]",16.7 nM
10,"C[C@@H](NC(=O)c1cc(N2CCC(c3ccc(N)c(C(N)=O)n3)CC2)nc(OCC2CC2(F)F)n1)C(C)(C)O (single isomer, unassigned) [Example 16]",12.6 nM
11,"N#C[C@@H]1C[C@@H]1COc1nc(C(=O)NC23CC(C2)C3)cc(N2CC[C@@H](c3n[nH]c4ncccc34)[C@@H](F)C2)n1 (single isomer, unassigned) [Example 78]",8.42 nM
12,"N#C[C@@H]1C[C@@H]1COc1nc(C(=O)NCC(F)(F)F)nc(N2CCC(c3ccc(N)c(C(N)=O)n3)CC2)n1 [Example 89, 4-[4-(5-amino-6-carbamoylpyridin-2-yl)piperidin-1-yl]-6-{[(1S,2R)-2-cyanocyclopropyl]methoxy}-N-(2,2,2-trifluoroethyl)-1,3,5-triazine-2-carboxamide]",134 nM
13,"CS(=O)(=O)COc1ccnc2[nH]nc(C3CCN(c4cc(C(=O)NC56CC(C5)C6)nc(OC[C@H]5C[C@H]5C#N)n4)CC3)c12 [Example 67, N-(bicyclo[1.1.1]pent-1-yl)-2-{[(1S,2R)-2-cyanocyclopropyl]methoxy}-6-(4-{4-[(methylsulfonyl)methoxy]-1H-pyrazolo[3,4-b]pyridin-3-yl}piperidin-1-yl)pyrimidine-4-carboxamide]",18.7 nM

# The next lines start with the values.
row,IC50,Compound
1,38.1 nM,"CC(C)(C)NC(=O)c1cc(N2CCC(c3n[nH]c4ncncc34)CC2)nc(OC[C@H]2C[C@H]2C#N)n1 [Example 48, N-tert-butyl-2-{[(1S,2R)-2-cyanocyclopropyl]methoxy}-6-[4-(1H-pyrazolo[3,4-d]pyrimidin-3-yl)piperidin-1-yl]pyrimidine-4-carboxamide]"
2,124 nM,"CCOc1nc(C(=O)NC23CC(C2)C3)cc(N2CCC(c3nc(C(N)=O)ccc3OCCN(C)C)CC2)n1 [Example 41, N-(bicyclo[1.1.1]pent-1-yl)-6-(4-{6-carbamoyl-3-[2-(dimethylamino)ethoxy]pyridin-2-yl}piperidin-1-yl)-2-ethoxypyrimidine-4-carboxamide]"
3,2.74 nM,"N#CC1(COc2nc(C(=O)NC34CC(C3)C4)nc(N3CCC(c4n[nH]c5ncccc45)CC3)n2)CC1 [Example 59, N-(bicyclo[1.1.1]pent-1-yl)-4-[(1-cyanocyclopropyl)methoxy]-6-[4-(1H-pyrazolo[3,4-b]pyridin-3-yl)piperidin-1-yl]-1,3,5-triazine-2-carboxamide]"
4,1.78 nM,"CCNC(=O)c1cc(N2CCC(COc3cc(-c4cnn(C)c4)cnc3N)CC2)nc(OC[C@H]2C[C@H]2C#N)n1 [Example 25, 6-[4-({[2-amino-5-(1-methyl-1H-pyrazol-4-yl)pyridin-3-yl]oxy}methyl)piperidin-1-yl]-2-{[(1S,2R)-2-cyanocyclopropyl]methoxy}-N-ethylpyrimidine-4-carboxamide]"
5,2.83 nM,"COC[C@@H](C)Oc1nc(C(=O)NC2CCC2)cc(N2CCC(c3ccc(N)c(C(N)=O)n3)CC2)n1 [Example 4, 6-[4-(5-amino-6-carbamoylpyridin-2-yl)piperidin-1-yl]-N-cyclobutyl-2-{[(2R)-1-methoxypropan-2-yl]oxy}pyrimidine-4-carboxamide]"
6,1.86 nM,"N#C[C@@H]1C[C@@H]1COc1nc(C(=O)NC23CC(C2)C3)cc(N2CCC(c3n[nH]c4nccc(OCCO)c34)CC2)n1 [Example 65, N-(bicyclo[1.1.1]pent-1-yl)-2-{[(1S,2R)-2-cyanocyclopropyl]methoxy}-6-{4-[4-(2-hydroxyethoxy)-1H-pyrazolo[3,4-b]pyridin-3-yl]piperidin-1-yl}pyrimidine-4-carboxamide]"
7,2.94 nM,"CCNC(=O)c1cc(N2CCC(COc3cc(-c4cn(C)cn4)cnc3N)CC2)nc(O[C@H](C)COC)n1 [Example 68, 6-[4-({[2-amino-5-(1-methyl-1H-imidazol-4-yl)pyridin-3-yl]oxy}methyl)piperidin-1-yl]-N-ethyl-2-{[(2R)-1-methoxypropan-2-yl]oxy}pyrimidine-4-carboxamide]"
8,39.9 nM,"C[C@@H](NC(=O)c1cc(N2CCC(c3cccc(C(N)=O)n3)CC2)nc(OCC2CC2(F)F)n1)C(C)(C)O (stereo partly drawn) [Example 17, 6-[4-(6-carbamoylpyridin-2-yl)piperidin-1-yl]-2-[(2,2-difluoro-cyclopropyl)methoxy]-N-[(2R)-3-hydroxy-3-methylbutan-2-yl]pyrimidine-4-carboxamide]"
